Results: US8545898B2, “Broad-spectrum antiviral composition with excellent preservation stabilty” (Taiko Pharmaceutical Co., Ltd., priority 2007, dated 2013)
Read-outs that look alike come from different tables or passages of the source.

Experiments:
[1] = target: human hepatitis B surface antigen (HBsAg) (Hepatitis B virus genotype C subtype adr, UniProt P12934); experiment: Anti-HBsAg activity, HBsAg titer by chemiluminescent immunoassay; assay type: biochemical; details: 100 ppm; for HBsAg antigen titer: untreated 54 IU/ml
Description: For the antiviral testing, various concentrations of the chlorine dioxide solutions (agent A, agent B) were prepared and left in respective containers made of synthetic resin for 8 months. Specifically, each of the chlorine dioxide solutions obtained in each of Examples 1 and 2 was placed in a container having an opening with a diameter of 2 cm, and after closing a screw-cap, the container was left at room temperature for 8 months. Subsequently, an antiviral activity effect of the solution was examined. As controls, sodium hypochlorite (agent C), stabilized chlorine dioxide (sodium chlorite) (agent D), and povidone-iodine (agent E) were used. The agents C to E were not preserved for 8 months, and subjected to the test immediately after the purchase.
Each agent was added to human hepatitis B surface antigen (HBsAg), and after 1, 2, 3 or 4 days of sensitization, the agent was neutralized with a sodium thiosulfate solution, and HBsAg titer was measured using a chemiluminescent immunoassay “Architect-HBsAg (manufactured by Dainabot Co., Ltd.)”. An anti-HBsAg activity of the agent was evaluated.

[2] = system: canine parvovirus <CPV(Y-1)>; experiment: Antiviral testing (canine parvovirus), TCID50 by swine hemagglutination test, CRFK cells; assay type: cell-based

human hepatitis B surface antigen (HBsAg), sequence (P12934 whole entry): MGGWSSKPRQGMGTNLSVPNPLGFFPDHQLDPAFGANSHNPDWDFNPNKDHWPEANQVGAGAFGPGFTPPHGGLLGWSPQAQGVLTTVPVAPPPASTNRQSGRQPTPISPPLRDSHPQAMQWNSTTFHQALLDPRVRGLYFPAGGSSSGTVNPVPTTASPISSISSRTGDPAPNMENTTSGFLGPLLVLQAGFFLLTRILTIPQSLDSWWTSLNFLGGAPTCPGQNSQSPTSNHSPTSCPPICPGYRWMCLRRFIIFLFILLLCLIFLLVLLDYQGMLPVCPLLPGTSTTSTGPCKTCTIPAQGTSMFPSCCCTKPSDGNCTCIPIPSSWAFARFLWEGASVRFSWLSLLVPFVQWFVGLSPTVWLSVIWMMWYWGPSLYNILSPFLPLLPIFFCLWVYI

| Compound | anti-HBsAg activity ([1]; 1 to 4 days) | HBsAg antigen titer ([1]; sensitized time 1 day) [IU/ml] | HBsAg antigen titer ([1]; sensitized time 2 days) [IU/ml] | HBsAg antigen titer ([1]; sensitized time 3 days) [IU/ml] | HBsAg antigen titer ([1]; sensitized time 4 days) [IU/ml] | CPV infectivity titer remaining ([2]; 10 ppm, after 180 seconds) [TCID50] | decrease in CPV infectivity titer ([2]; 100 ppm, after 120 seconds) [%] | decrease in CPV infectivity titer [2] |
| --- | --- | --- | --- | --- | --- | --- | --- | --- |
| OCl [sodium hypochlorite, Sodium hypochlorite] | absence of an anti-HBsAg activity | 50 | 51 | 51 | 49 | 100 | ≥ 99.99 | – |
| sodium chlorite [stabilized chlorine dioxide solution] | – | – | – | – | – | – | – | no decrease in the infectivity titer was observed |
